Several values for one entry are separate records, joined by “and”; a condition that tells them apart may be missing. Equal values may be shown once. After the bases stand the sugars from the 5' end (letter, count) and the backbone: PS all phosphorothioate, else s phosphorothioate and o phosphodiester by linkage. Methylation of C is not given here. k = constrained ethyl (cEt); d = 2'-deoxy (DNA)
Target: MALAT1
Conditions: ASO, A431, 0.005 µM

Which target mRNA inhibition does the source give for CCGGAAATCGGCCTAC (sugars k3 d10 k3, PS) here?
Its target mRNA inhibition is 20%.

Which target mRNA inhibition does the source give for CCGTTTTTCAGCTTCC (sugars k3 d10 k3, PS) here?
Its target mRNA inhibition is 6%.

CTCAAAGTCCAATGCA (sugars k3 d10 k3, PS) was tested. Which target mRNA inhibition did it give?
The target mRNA inhibition was 48%.

For CCAAACAACTTTTGCA (sugars k3 d10 k3, PS), which target mRNA inhibition is on record?
The target mRNA inhibition was 44%.

For ACCCCTGACTTTCTGG (sugars k3 d10 k3, PS), which target mRNA inhibition is on record?
The target mRNA inhibition was 18%.

ACAAACTGCTTACAGA (sugars k3 d10 k3, PS) was tested. Which target mRNA inhibition did it give?
The target mRNA inhibition was 17%.

Which target mRNA inhibition does the source give for AGAAACCTACAACACC (sugars k3 d10 k3, PS) here?
The target mRNA inhibition was -6%.

Which target mRNA inhibition does the source give for TACCTTGAAACCGATT (sugars k3 d10 k3, PS) here?
The target mRNA inhibition was 36%.

For CTTCCCGTACTTCTGT (sugars k3 d10 k3, PS), which target mRNA inhibition is on record?
Its target mRNA inhibition is 43%.

For TTATCTAAATACCACC (sugars k3 d10 k3, PS), which target mRNA inhibition is on record?
The target mRNA inhibition was 2%.

Which target mRNA inhibition does the source give for CCCGGAAATCGGCCTA (sugars k3 d10 k3, PS) here?
The target mRNA inhibition was 0%.

For AAATTTTTCTACCGTT (sugars k3 d10 k3, PS), which target mRNA inhibition is on record?
Its target mRNA inhibition is -3%.

CTCGCATCACCGGAAT (sugars k3 d10 k3, PS) was tested. Which target mRNA inhibition did it give?
Its target mRNA inhibition is -14%.

For ACGGAGAACAACTCGC (sugars k3 d10 k3, PS), which target mRNA inhibition is on record?
Its target mRNA inhibition is 1%.

With GATCTGGTCCATTAAA (sugars k3 d10 k3, PS) as the sequence, how does the target mRNA inhibition read?
The target mRNA inhibition was 25%.

For CCTAGCTTCCTTCACC (sugars k3 d10 k3, PS), which target mRNA inhibition is on record?
Its target mRNA inhibition is 17%.

With AGTAGACCAACTAAGC (sugars k3 d10 k3, PS) as the sequence, how does the target mRNA inhibition read?
Its target mRNA inhibition is 25%.

For CTGTTAAGACCATCCC (sugars k3 d10 k3, PS), which target mRNA inhibition is on record?
Its target mRNA inhibition is 46%.

ATTCTAATAGCAGCGG (sugars k3 d10 k3, PS) was tested. Which target mRNA inhibition did it give?
The target mRNA inhibition was 32%.

Which target mRNA inhibition does the source give for CTAGGGAAAAGTGGTT (sugars k3 d10 k3, PS) here?
The target mRNA inhibition was -22%.

With GGTCAGGAGAAAGTGC (sugars k3 d10 k3, PS) as the sequence, how does the target mRNA inhibition read?
The target mRNA inhibition was 18%.

Which target mRNA inhibition does the source give for CTGCTTACAGATTTGC (sugars k3 d10 k3, PS) here?
Its target mRNA inhibition is 49%.

CCCCCATTATATTAGA (sugars k3 d10 k3, PS) was tested. Which target mRNA inhibition did it give?
Its target mRNA inhibition is 28%.

With AGCTTGACAAGCAATT (sugars k3 d10 k3, PS) as the sequence, how does the target mRNA inhibition read?
Its target mRNA inhibition is 16%.

TAGGGCTTCTCAAAAC (sugars k3 d10 k3, PS) was tested. Which target mRNA inhibition did it give?
Its target mRNA inhibition is 4%.

How did the target mRNA inhibition turn out when ATCCCCCCCAAGATTG (sugars k3 d10 k3, PS) was run?
Its target mRNA inhibition is 5%.

For ATTGGTATTAATTCGG (sugars k3 d10 k3, PS), which target mRNA inhibition is on record?
Its target mRNA inhibition is 70% and 75% and 92%.

With TCCATTACGCAACTGA (sugars k3 d10 k3, PS) as the sequence, how does the target mRNA inhibition read?
The target mRNA inhibition was 9%.

How did the target mRNA inhibition turn out when TGATAACGAAGAGATA (sugars k3 d10 k3, PS) was run?
The target mRNA inhibition was 15%.

For TTACCATAAGTAAGTT (sugars k3 d10 k3, PS), which target mRNA inhibition is on record?
The target mRNA inhibition was -20%.

TTAACTTCCCCCAGCT (sugars k3 d10 k3, PS) was tested. Which target mRNA inhibition did it give?
The target mRNA inhibition was 0%.

How did the target mRNA inhibition turn out when GTCAATAGTGTAAAAC (sugars k3 d10 k3, PS) was run?
Its target mRNA inhibition is 33%.

With GCCTACCGCACAGCTC (sugars k3 d10 k3, PS) as the sequence, how does the target mRNA inhibition read?
Its target mRNA inhibition is 26%.

TTCGGTTAAAAATAGG (sugars k3 d10 k3, PS) was tested. Which target mRNA inhibition did it give?
The target mRNA inhibition was -7%.

How did the target mRNA inhibition turn out when AACGAAGAGATACCTG (sugars k3 d10 k3, PS) was run?
Its target mRNA inhibition is 12%.

GACTCTGGGAAACCTG (sugars k3 d10 k3, PS) was tested. Which target mRNA inhibition did it give?
Its target mRNA inhibition is 1%.

For CAGAAGCCCCTGCGCT (sugars k3 d10 k3, PS), which target mRNA inhibition is on record?
Its target mRNA inhibition is 3%.

Which target mRNA inhibition does the source give for ATTAAGAGCTGCTATA (sugars k3 d10 k3, PS) here?
Its target mRNA inhibition is -4%.

TTCTTAACAGCTTATG (sugars k3 d10 k3, PS) was tested. Which target mRNA inhibition did it give?
The target mRNA inhibition was 21%.

ATAGTTCAACCCACCA (sugars k3 d10 k3, PS) was tested. Which target mRNA inhibition did it give?
The target mRNA inhibition was 21%.

CCCCAACTGCTTGCAG (sugars k3 d10 k3, PS) was tested. Which target mRNA inhibition did it give?
Its target mRNA inhibition is 13%.

How did the target mRNA inhibition turn out when AATCCCCTAGGGAAGG (sugars k3 d10 k3, PS) was run?
The target mRNA inhibition was 5%.

How did the target mRNA inhibition turn out when ATTTTTGAAGCATACC (sugars k3 d10 k3, PS) was run?
The target mRNA inhibition was 41% and 57%.

For AATCACCTTCGGTTTA (sugars k3 d10 k3, PS), which target mRNA inhibition is on record?
Its target mRNA inhibition is -1%.

With AGTAAGCCCCACCCCC (sugars k3 d10 k3, PS) as the sequence, how does the target mRNA inhibition read?
Its target mRNA inhibition is 29%.

Which target mRNA inhibition does the source give for CTTCGGATGCTTCACT (sugars k3 d10 k3, PS) here?
The target mRNA inhibition was 33%.

Which target mRNA inhibition does the source give for GGCTTTAAATGACGCA (sugars k3 d10 k3, PS) here?
Its target mRNA inhibition is 17%.

For TGCCAAGCCAAGCCGC (sugars k3 d10 k3, PS), which target mRNA inhibition is on record?
Its target mRNA inhibition is 13%.

TACTCTGATCATAATC (sugars k3 d10 k3, PS) was tested. Which target mRNA inhibition did it give?
Its target mRNA inhibition is 17%.

With ACAAGTTACATGTTCC (sugars k3 d10 k3, PS) as the sequence, how does the target mRNA inhibition read?
Its target mRNA inhibition is 21%.

Which target mRNA inhibition does the source give for TACATCAAGGATGTAT (sugars k3 d10 k3, PS) here?
Its target mRNA inhibition is 2%.

How did the target mRNA inhibition turn out when GTTAAAAACTTAACGC (sugars k3 d10 k3, PS) was run?
The target mRNA inhibition was 4%.

With CTCGCCTCCTCCGTGT (sugars k3 d10 k3, PS) as the sequence, how does the target mRNA inhibition read?
Its target mRNA inhibition is 10%.

Which target mRNA inhibition does the source give for ATCTTAGTAACCTATT (sugars k3 d10 k3, PS) here?
The target mRNA inhibition was 17%.

For ATCAGGTGAGGCTGAC (sugars k3 d10 k3, PS), which target mRNA inhibition is on record?
Its target mRNA inhibition is 23%.

With CCTGTTAAGACCATCC (sugars k3 d10 k3, PS) as the sequence, how does the target mRNA inhibition read?
Its target mRNA inhibition is 40%.

Which target mRNA inhibition does the source give for GGCCTTTTCTAACATA (sugars k3 d10 k3, PS) here?
Its target mRNA inhibition is 2%.
